Measured values reported in US20200022995A1, “Novel Immunodulating Small Molecules” (AyuVis Research, Inc., priority 2018, published 2020).

Columns and labels:
THP-1 cells = test: Monocyte differentiation, phagocytosis and intracellular killing of Pseudomonas aeruginosa in THP-1 cells; type: cell-based, human
Text: Two of these compounds 8 and 32 stimulated monocyte differentiation into macrophages, increased phagocytosis of Pseudomonas aeruginosa (FIG. 18) and increased intracellular killing of bacteria (FIG. 19). These compounds have potential to be used as vaccine adjuvants and in combination with existing antibiotic for prophylactic treatment such as in cystic fibrosis patients.

TLR7/8 = test: IL-1β ELISA in hPBMC, alone or with TLR7/8 ligand CL075; type: cell-based, human
Text: Compound 8 modulates the TLR7/8 activities in a concentration dependent manner.

TLR9 = molecular target: T1, TLR9 (Homo sapiens, UniProt Q9NR96); test: IFN-α ELISA in hPBMC with TLR9 ligand ODN2216; type: cell-based; conditions: 48 h
T1 construct: endogenous in cells; host or cells: hPBMC
T1 sequence (Q9NR96 26-1032): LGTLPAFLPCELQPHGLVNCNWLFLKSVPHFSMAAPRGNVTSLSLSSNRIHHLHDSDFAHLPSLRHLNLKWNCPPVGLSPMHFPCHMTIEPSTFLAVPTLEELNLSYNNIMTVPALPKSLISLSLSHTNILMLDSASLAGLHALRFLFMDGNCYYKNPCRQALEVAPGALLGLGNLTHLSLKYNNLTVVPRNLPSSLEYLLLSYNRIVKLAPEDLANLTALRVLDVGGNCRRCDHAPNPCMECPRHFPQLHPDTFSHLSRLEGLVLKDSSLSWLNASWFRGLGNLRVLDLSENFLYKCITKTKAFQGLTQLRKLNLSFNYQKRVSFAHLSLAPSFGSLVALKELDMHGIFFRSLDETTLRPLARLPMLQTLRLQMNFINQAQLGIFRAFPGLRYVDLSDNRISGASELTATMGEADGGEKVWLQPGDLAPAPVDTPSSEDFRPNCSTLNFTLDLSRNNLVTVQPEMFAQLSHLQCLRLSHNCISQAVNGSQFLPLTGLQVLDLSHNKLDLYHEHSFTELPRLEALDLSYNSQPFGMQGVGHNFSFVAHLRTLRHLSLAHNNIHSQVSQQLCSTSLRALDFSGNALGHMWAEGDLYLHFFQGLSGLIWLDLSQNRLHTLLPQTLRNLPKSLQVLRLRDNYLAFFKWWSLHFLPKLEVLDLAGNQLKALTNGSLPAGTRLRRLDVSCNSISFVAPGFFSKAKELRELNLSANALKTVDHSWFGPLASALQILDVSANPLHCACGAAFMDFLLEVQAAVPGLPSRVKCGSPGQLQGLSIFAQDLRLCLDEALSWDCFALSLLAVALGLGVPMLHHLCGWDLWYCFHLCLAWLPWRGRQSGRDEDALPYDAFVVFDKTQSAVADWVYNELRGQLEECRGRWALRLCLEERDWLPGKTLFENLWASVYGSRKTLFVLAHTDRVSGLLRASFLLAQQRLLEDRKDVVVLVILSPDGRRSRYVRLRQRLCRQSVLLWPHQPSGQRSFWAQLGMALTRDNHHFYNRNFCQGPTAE
Method: Compound 8 antagonizes the TLR9 activities and downregulates the production of IFN-α in combination with TLR9 ligand ODN2216 in hPBMC after 48 h of treatment as detected by ELISA (FIG. 11).

HUVECs = test: Cytotoxicity in HUVECs (MTT); type: cell-based, human; conditions: 100 μM, 24 h
Method: Selected TLR2/4 antagonist compounds 2, 6, 7, 8, 14, 17 and 32 were evaluated for cytotoxicity in HUVECs at 100 μM concentration. The cells were treated with compounds and incubated for 24 h. Cell viability was assessed using MTT cell proliferation kit (Promega). All the compounds were not toxic to HUVECs (FIG. 15).

[1] = tested on: P. aeruginosa (ATCC-10145 GFP) infected skin wounds; test: Murine skin wound infection with P. aeruginosa; type: in vivo, C57BL/6 mice
Method: Five groups of C57BL/6 mice (8-10 weeks old, n=4) were wounded on the dorsal surface. 25 ul containing 10^6 CFU/mL P. aeruginosa in a PBS suspension were pipetted onto the wound and allowed to absorb for at least 3 min. […] Subsequently and for the next 13 days, infected wounds were treated each alternate day with colistin, or with test compounds.

[2] = tested on: LPS-induced lung injury in mice; test: LPS-induced ALI model; type: in vivo, C57BL/6 mice; conditions: IP
Text: Male C57BL/6 mice (Jackson Laboratories,) 12-15 weeks old, 25-28 gms, housed up to 5 per cage were used.
The lungs were sectioned for histopathological assessment after H/E staining while the BAL fluid was used to detect total cell counts (neutrophils and macrophages) and measure protein (that exudes by leakage).

neonatal pups with BPD = test: Hyperoxia mouse model of BPD (newborn pups); type: in vivo
Text: Neonatal mice and humans undergo similar stages of lung development but differ with respect to the duration of each stage and its temporal relationship to gestational age. The lungs of the mouse born at term are in the saccular stage and are surfactant sufficient; this can be considered somewhat akin to a human preterm neonate in the same stage of lung development that has been exposed to a full complement of antenatal steroids (which is known to enhance surfactant production). In terms of mimicking the human condition, the most successful hyperoxia models are those that limit exposure to hyperoxia to the saccular stage of pulmonary development. The mouse BPD model involves exposing newborn mice (postnatal day 1 or PN1) to 100% oxygen till PN4 followed by recovery in room air (RA) for another 10 days.
After the recovery period, their lungs were harvested and processed for quantitative PCR, western blotting, histopathology and ELISA.
Each of the compounds 3, 8 or 32 encapsulated in PLGA nanoparticles referred as 3NP, 8NP and 32NP was instilled intranasally (IN) as nanosuspension to newborn pups on PN2 and PN4 at different doses (FIG. 28). After the recovery period, their lungs were harvested and processed for quantitative PCR, western blotting and histopathology and ELISA.
BPD is characterized by large simplified alveoli, inflammation, increased cell death, decreased cell proliferation, dysmorphic capillary configuration, and variable interstitial cellularity and/or fibroproliferation. […] This is determined by measuring the alveolar chord length, septal thickness and radial alveolar count (RAC). In BPD, the alveolar area increases which is characterized by increase in the diameter of the alveolar sacs, the septa become thickened (thus interfering in gaseous exchange) and the RAC, a parameter used to assess the complexity of terminal respiratory unit by pulmonologists, decreases as a result of arrested lung development.

CC(=O)N[C@H]1[C@H](Oc2ccc([N+](=O)[O-])cc2)O[C@H](CO)[C@@H](O)[C@@H]1O [Compound 8, p-Nitrophenyl 2-acetamido-2-deoxy-β-D-glucopyranoside]
monocyte differentiation into macrophages (THP-1 cells): stimulated
intracellular killing of bacteria (THP-1 cells; Pseudomonas aeruginosa, THP-1 cells): increased
phagocytosis of Pseudomonas aeruginosa (THP-1 cells; THP-1 cells): increased
IL-1β protein level (TLR7/8; 0.1 μM to <1 μM, alone or with CL075, hPBMC, 24 h, ELISA): downregulate
production of IL-1β (TLR7/8; 1.0 μM, alone and with CL075, hPBMC): significantly stimulated
production of IFN-α (TLR9): downregulates
cytotoxicity in HUVECs (HUVECs): not toxic
wound closure at day 13 ([1]; 25 μl Colistin 4 μg/ml or compound 100 μg/ml, each alternate day): complete closure
bacterial numbers versus untreated control ([1]; 13 days post infection): statistically significant reduction
re-epithelialization and granulation tissue versus controls ([1]; H&E histology, day 13 post-injury): borderline non-significant
CFU in tissues ([1]; topical, 100 μM, C57BL6 mice): decreased
closure of P. aeruginosa infected skin wounds ([1]; topical, 100 μM, C57BL6 mice): effectively closed
protection against LPS induced lung injury ([2]; 10 mg/kg at 4 h and 12 h post LPS): significant protection
LPS-induced lung inflammation ([2]; 10 mg/kg, mice): ameliorated
anti-inflammatory cytokine IL-10 (neonatal pups with BPD; 10 mg/kg, ELISA): increase
inflammatory cytokines and chemokines (MIP-2, MCP-1, IL-17, IFN-Y, TNF-α, IL-1β, and IL-6) (neonatal pups with BPD; 10 mg/kg, ELISA): decreases
lung injury in neonatal pups with BPD (neonatal pups with BPD; mouse model of BPD): prevent lung injury
TLR4 inhibition in an in vivo model system (neonatal pups with BPD; neonatal pups with BPD): inhibit TLR4
lung architecture (neonatal pups with BPD; saline IV and nanosuspension IN): restored
